The target in one experiment is T1, recombinant human Ang1 (Homo sapiens, UniProt Q15389).
T1 construct: purchased R&D Systems 923-AN-025/CF
T1 sequence (Q15389 16-498): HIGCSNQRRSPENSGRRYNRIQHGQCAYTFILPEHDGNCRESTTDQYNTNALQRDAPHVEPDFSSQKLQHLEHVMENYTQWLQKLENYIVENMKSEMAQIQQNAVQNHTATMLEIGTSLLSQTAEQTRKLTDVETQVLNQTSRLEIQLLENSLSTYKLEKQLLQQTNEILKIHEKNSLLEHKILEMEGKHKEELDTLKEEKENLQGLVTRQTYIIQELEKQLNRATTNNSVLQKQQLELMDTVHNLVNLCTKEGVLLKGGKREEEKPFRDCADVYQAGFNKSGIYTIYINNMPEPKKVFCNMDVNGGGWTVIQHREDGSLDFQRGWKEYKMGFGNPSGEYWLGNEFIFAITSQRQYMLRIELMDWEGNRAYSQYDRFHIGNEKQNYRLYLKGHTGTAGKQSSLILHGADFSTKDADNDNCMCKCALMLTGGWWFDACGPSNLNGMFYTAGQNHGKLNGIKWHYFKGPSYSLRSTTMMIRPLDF
Put plainly: BIACORE (SPR) binding of peptides to immobilized recombinant Ang1. The following applies: CM5 chip, 10-50 μM peptide. From the text:
(§1) The capability of CGEN-H2 [SEQ ID NO: 1], CGEN-H3 [SEQ ID NO: 2], CGEN-A8 [SEQ ID NO: 3], CGEN-H7 [SEQ ID NO: 4], CGEN-G4 [SEQ ID NO: 5], CGEN-G6 [SEQ ID NO: 6], CGEN-F9 [SEQ ID NO: 7], CGEN-F12 [SEQ ID NO: 8], CGEN-C6-30 [SEQ ID NO: 9], CGEN-All [SEQ ID NO: 10], and CGEN-G2 [SEQ ID NO: 11] to specifically bind to recombinant Ang1, Ang2, and Ang4 was investigated using the BIACORE technology, measuring protein-protein interaction and binding affinity (Wendler et al 2005, Anal Bioanal Chem, 381: 1056-1064). The technology is based on surface plasmon resonance (SPR), an optical phenomenon that enables detection of unlabeled interactants in real time. The SPR-based biosensors can be used in determination of active concentration, screening and characterization in terms of both affinity and kinetics.
(§2) Peptide-protein binding was analyzed using surface plasmon resonance. Analysis of the to interaction between CGEN-H2 [SEQ ID NO: 1], CGEN-H3 [SEQ ID NO: 2], CGEN-A8 [SEQ ID NO: 3], CGEN-H7 [SEQ ID NO: 4], CGEN-G4 [SEQ ID NO: 5], CGEN-G6 [SEQ ID NO: 6], CGEN-F9 [SEQ ID NO: 7], CGEN-F12 [SEQ ID NO: 8], CGEN-C6 [SEQ ID NO: 9], CGEN-A11 [SEQ ID NO: 10], and CGEN-G2 [SEQ ID NO: 11] peptides and recombinant human Ang1 carrier-free (R&D Systems, Cat#923-AN-025/CF, Lot#FHW1507031), human Ang2 carrier-free (R&D Systems, Cat#623-AN-025/CF, Lot#BNO0457121), and human Ang4 carrier-free (R&D Systems, Cat#964-AN-025/CF, Lot#ELM025121) was conducted using the BIAcore biosensor (Pharmacia Biosensor, Uppsala, Sweden). The recombinant Ang1, Ang2, and Ang4 were immobilized directly to a CM5 sensor chip. Solutions containing 10-50 μM of CGEN-H2 [SEQ ID NO: 1], CGEN-H3 [SEQ ID NO: 2], CGEN-A8 [SEQ ID NO: 3], CGEN-H7 [SEQ ID NO: 4], CGEN-G4 [SEQ ID NO: 5], CGEN-G6 [SEQ ID NO: 6], CGEN-F9 [SEQ ID NO: 7], CGEN-F12 [SEQ ID NO: 8], CGEN-C6 [SEQ ID NO: 9], CGEN-A11 [SEQ ID NO: 10], and CGEN-G2 [SEQ ID NO: 11] peptides were injected into the sample chamber of the BIACORE device at a rate of […] and the interaction was monitored using surface plasmon resonance.
(§3) Solutions containing different concentrations of CGEN-G6 [SEQ ID NO: 6], CGEN-F9 [SEQ ID NO: 7], CGEN-F12 [SEQ ID NO: 8], CGEN-A11 [SEQ ID NO: 10], and CGEN-G2 [SEQ ID NO: 11] peptides (as indicated in Table 2) were injected into the sample chamber of the BIACORE device at a rate of […] and the interaction was monitored using surface plasmon resonance. As a background, the solutions were also injected onto an empty flow cell with no immobilized ligand and the in binding levels achieved were subtracted. Data was analyzed using BIAevaluation software. The affinity constant of the interaction between CGEN-G6 [SEQ ID NO: 6], CGEN-F9 [SEQ ID NO: 7], CGEN-F12 [SEQ ID NO: 8], CGEN-C6 [SEQ ID NO: 9], CGEN-A11 [SEQ ID NO: 10], and CGEN-G2 [SEQ ID NO: 11] and Ang1, Ang2, or Ang4 was determined by direct kinetic analysis. The 1:1 Langmuir binding model was used to fit kinetic data.
(§4) Table 2 summarizes results of analysis of CGEN-G6 [SEQ ID NO: 6], CGEN-F9 [SEQ ID NO: 7], CGEN-F12 [SEQ ID NO: 8], CGEN-A11 [SEQ ID NO: 10], and CGEN-G2 [SEQ ID NO: 11] interaction with Ang1, Ang2, or Ang4. Kinetic measurements were done at the indicated concentration range, and they are presented as KD (M). CGEN-F12 [SEQ ID NO: 8] bound to Ang1 and Ang4 with high affinity. The specificity of this binding is not clear.
On the technique in general: SPR reads the build-up and loss of mass on a sensor chip optically.

For the next experiment, the target named is T2, human Ang2 (Homo sapiens, UniProt O15123).
T2 construct: purchased R&D Systems 623-AN-025/CF
T2 sequence (O15123 19-496): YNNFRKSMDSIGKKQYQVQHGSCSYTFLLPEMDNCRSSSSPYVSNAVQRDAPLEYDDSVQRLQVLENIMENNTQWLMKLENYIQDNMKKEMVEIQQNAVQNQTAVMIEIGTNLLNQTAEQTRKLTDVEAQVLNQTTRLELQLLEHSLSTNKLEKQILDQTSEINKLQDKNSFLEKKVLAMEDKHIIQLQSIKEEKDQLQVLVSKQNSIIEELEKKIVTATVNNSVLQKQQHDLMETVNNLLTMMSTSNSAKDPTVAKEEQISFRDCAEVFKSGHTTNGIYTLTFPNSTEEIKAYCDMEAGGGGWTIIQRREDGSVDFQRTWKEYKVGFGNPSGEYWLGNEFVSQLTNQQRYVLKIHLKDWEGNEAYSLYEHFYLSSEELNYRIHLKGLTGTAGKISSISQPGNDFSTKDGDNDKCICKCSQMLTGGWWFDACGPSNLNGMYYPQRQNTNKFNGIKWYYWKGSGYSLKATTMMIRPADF
Put plainly: BIACORE (SPR) binding of peptides to immobilized recombinant Ang2. The note with it: CM5 chip, 10-50 μM peptide.
Text: as §1, §2, §3, §4

Molecules are shown by their SMILES. Residues, ends and D or L forms follow the SMILES beside them.

As for `CSCC[C@H](NC(=O)[C@H](CC(C)C)NC(=O)[C@H](CC(=O)O)NC(C)=O)C(=O)N[C@@H](CCC(=O)O)C(=O)N[C@H](C(=O)N[C@H](C(=O)N[C@@H](CC(N)=O)C(=O)N[C@@H](CC(N)=O)C(=O)N[C@@H](CC(C)C)C(=O)N[C@@H](CC(C)C)C(=O)N[C@H](C(=O)N[C@@H](CCSC)C(=O)N[C@@H](CCSC)C(=O)N[C@@H](CO)C(=O)N[C@H](C(=O)N[C@@H](CO)C(=O)N[C@@H](CC(N)=O)C(=O)N[C@@H](CO)C(=O)N[C@@H](C)C(=O)N[C@@H](CCCCN)C(=O)N[C@@H](CC(=O)O)C(N)=O)[C@@H](C)O)[C@@H](C)O)C(C)C)[C@@H](C)O` [CGEN-G6] (Ac-DLMETVNNLLTMMSTSNSAKD-NH2), the “binding to immobilized Ang1 (in words)” value on recombinant human Ang1 is reported as “capable of binding”. Besides, the “binding to immobilized Ang2 (in words)” value at human Ang2 was “capable of binding”.

Regarding `CC(=O)N[C@@H](CCC(=O)O)C(=O)N[C@H](C(=O)N[C@@H](Cc1ccccc1)C(=O)N[C@@H](CC(C)C)C(=O)N[C@@H](CO)C(=O)N[C@H](C(=O)N[C@@H](CC(N)=O)C(=O)N[C@@H](CCCCN)C(=O)N[C@@H](CC(C)C)C(=O)N[C@@H](CCC(=O)O)C(=O)N[C@@H](CC(N)=O)C(=O)N[C@@H](CCC(N)=O)C(N)=O)[C@@H](C)O)[C@@H](C)O` [CGEN-A11, ETFLSTNKLENQ] (Ac-ETFLSTNKLENQ-NH2), the “binding to immobilized Ang1 (in words)” value on recombinant human Ang1 is “capable of binding”. Besides, the “binding to immobilized Ang2 (in words)” value on human Ang2 was “capable of binding”.

With `CC[C@H](C)[C@H](NC(=O)[C@H](C)NC(=O)[C@H](CCCNC(=N)N)NC(=O)[C@H](CCC(=O)O)NC(=O)[C@H](CC(C)C)NC(=O)[C@H](CCCCN)NC(=O)[C@H](CCCCN)NC(=O)[C@H](CC(C)C)NC(=O)[C@H](Cc1c[nH]c2ccccc12)NC(=O)[C@H](CCC(N)=O)NC(=O)[C@@H](NC(=O)[C@H](CC(N)=O)NC(=O)[C@H](CC(N)=O)NC(=O)[C@H](CCC(N)=O)NC(=O)[C@H](CC(C)C)NC(=O)[C@H](C)NC(=O)[C@H](CCC(N)=O)NC(=O)[C@H](CCC(=O)O)NC(=O)[C@H](CC(C)C)NC(=O)[C@H](CCC(N)=O)NC(=O)[C@H](CCCCN)NC(=O)[C@@H](NC(=O)[C@H](CCC(N)=O)NC(=O)[C@H](CCC(N)=O)NC(=O)[C@@H](NC(C)=O)[C@@H](C)O)C(C)C)[C@@H](C)O)C(=O)N[C@@H](CCCCN)C(=O)N[C@H](C(=O)N[C@H](C(=O)N[C@@H](CC(C)C)C(N)=O)[C@@H](C)CC)[C@@H](C)O` [CGEN-G2] (Ac-TQQVKQLEQALQNNTQWLKKLERAIKTIL-NH2), the “binding to immobilized Ang1 (in words)” value on recombinant human Ang1 is reported as “capable of binding”. Besides, at human Ang2, the “binding to immobilized Ang2 (in words)” value is listed as “capable of binding”.

The record behind these values is patent US9255132B2, “Angiopoietin derived peptides” (Compugen Ltd., priority 2008, dated 2016).
